Reference: article PMC12088830 (Xenobiotica; the fate of foreign compounds in biological …, 2021)
Each block holds one compound with its values, some of them ahead of it.

Key:
hPTECs = assay: Viability assay; format: cell-based, human
CYP24A1 [1] = conditions: HepG2 cells; 4 nM dose; ref Horvath et al 2012; cited from earlier work
SLCO4C1 = assay: Gene expression; format: cell-based, human; conditions: uraemic serum 24 h, then 240 nM for six days
OATP4C1 = assay: Protein expression; format: cell-based, human; conditions: for Effect on OATP4C1 protein expression: normal serum
CYP2R1 [2] = assay: Gene expression; conditions: for CYP2R1 mRNA expression compared to normal serum + VEH: normal serum 24 h; for CYP2R1 mRNA expression relative to VEH + normal serum: uraemic serum 24 h
CYP24A1 [3] = assay: Gene expression
ABCB1 = assay: Gene expression; format: cell-based, human
CYP2R1 [4] = assay: Protein expression; format: cell-based, human
P-gp and MRP4 = conditions: Caco-2 cells; 3 day treatment, 100 nM; ref Maeng et al 2012; cited from earlier work
P-gp = assay: Protein expression; format: cell-based, human; conditions: 240 nM for six days
in vitro = conditions: human
[5] = normal serum 24 h, then 100 nM for six days
[6] = normal serum 24 h, then 240 nM for six days
[7] = uraemic serum 24 h, then 100 nM for six days

SMILES: C=C1/C(=C\C=C2/CCC[C@]3(C)[C@@H]([C@H](C)CCCC(C)(C)O)CC[C@@H]23)C[C@@H](O)C[C@@H]1O [1,25-VitD3, calcitriol]
Effect on increasing cell viability relative to VEH (hPTECs; uraemic serum 24 h pre-treatment, then 100 nM and 240 nM for six days): no significant effects
CYP24A1 expression increase (CYP24A1 [1]): 5,300 fold
SLCO4C1 mRNA expression compared to normal serum + VEH (SLCO4C1): 3.3 fold
Decrease in OATP4C1 protein expression relative to normal serum + VEH (OATP4C1; 240 nM for six days): 54%
Effect on OATP4C1 protein expression (OATP4C1; 100 nM for six days): no effect
CYP2R1 mRNA expression compared to normal serum + VEH (CYP2R1 [2]; then 240 nM for six days): 4.7 fold
CYP2R1 mRNA expression relative to VEH + normal serum (CYP2R1 [2]; then 100 nM for six days): 4.8 fold
CYP2R1 mRNA expression relative to VEH + normal serum (CYP2R1 [2]; then 240 nM for six days): 4.0 fold
CYP24A1 mRNA expression compared to normal serum + VEH (CYP24A1 [3]; [5]): 8706 fold
CYP24A1 mRNA expression compared to normal serum + VEH (CYP24A1 [3]; [6]): 9483 fold
CYP24A1 mRNA expression compared to normal serum + VEH (CYP24A1 [3]; [7]): 4967 fold
CYP24A1 mRNA expression compared to normal serum + VEH (CYP24A1 [3]; uraemic serum 24 h, then 240 nM for six days): 5343 fold
ABCB1 mRNA expression compared to normal serum + VEH (ABCB1; [5]): 8.8 fold
ABCB1 mRNA expression compared to normal serum + VEH (ABCB1; [6]): 7.6 fold
ABCB1 mRNA expression compared to normal serum + VEH (ABCB1; [7]): 10 fold
Decrease in CYP2R1 protein expression under uraemic conditions compared to the same treatment with normal serum (CYP2R1 [4]; 100 nM for six days): 38%
Decrease in CYP2R1 protein expression under uraemic conditions compared to the same treatment with normal serum (CYP2R1 [4]; 240 nM for six days): 64%
Effect on efflux ratio of [3H]digoxin (hPTEC monolayer; 240 nM for six days, normal or uraemic serum): did not have a significant effect
Effect on P-gp and MRP4 transport activity (basolateral to apical transport of adefovir dipivoxil) (P-gp and MRP4): Increased P-gp and MRP4 transport activity
Increase in P-gp protein expression with uraemic serum compared to the same treatment with normal serum (P-gp): 1.44 fold

SMILES: C=C1CC[C@H](O)C/C1=C/C=C1\CCC[C@]2(C)[C@@H]([C@H](C)CCCC(C)C)CC[C@@H]12 [VitD3, cholecalciferol]
Effect on cell viability (hPTECs; normal or uraemic serum, 100 or 240 nM for six days): no significant effects
Effect on OATP4C1 protein expression (OATP4C1; 240 nM for six days): no effect
Increase in CYP2R1 mRNA expression under uraemic conditions compared to normal serum (same treatment) (CYP2R1 [2]; 100 nM for six days): 45%
CYP2R1 mRNA expression compared to normal serum + VEH (CYP2R1 [2]; then 240 nM for six days): 3.6 fold
CYP2R1 mRNA expression relative to VEH + normal serum (CYP2R1 [2]; then 100 nM for six days): 3.1 fold
Effect on ABCB1 mRNA expression (ABCB1; 100 or 240 nM for six days, normal or uraemic serum): no effect

Papp A→B at 33.5 μM (in vitro): 3.9 ± 0.14 ×10⁻⁶ cm/s
Papp A→B at 6 h, 33.5 μM (in vitro): 4.1 ± 0.27 ×10⁻⁶ cm/s
Digoxin transport in the B→A direction (hPTEC monolayer; one hour post digoxin dosing, normal serum + VEH): 29.9 ± 2.4%
SMILES: C[C@H]1O[C@@H](O[C@H]2[C@@H](O)C[C@H](O[C@H]3[C@@H](O)C[C@H](O[C@H]4CC[C@@]5(C)[C@H](CC[C@@H]6[C@@H]5C[C@@H](O)[C@]5(C)[C@@H](C7=CC(=O)OC7)CC[C@]65O)C4)O[C@@H]3C)O[C@@H]2C)C[C@H](O)[C@@H]1O [[^3H]digoxin, digoxin]
